Here are results for six molecules from patent publication US8063209B2, “Phosphonyl ester conjugates as prodrugs” (priority 2004, dated 2011).

A word on the Ki: it is the dissociation constant of the complex between target and ligand, obtained from inhibition or displacement.

The target in data set [1] is T1, hPepT1 (Homo sapiens, UniProt P46059).
T1 construct: expressed in transfected cells; host or cells: DC5 cells (hPepT1 over-expressing cell line)
T1 sequence (P46059 1-708): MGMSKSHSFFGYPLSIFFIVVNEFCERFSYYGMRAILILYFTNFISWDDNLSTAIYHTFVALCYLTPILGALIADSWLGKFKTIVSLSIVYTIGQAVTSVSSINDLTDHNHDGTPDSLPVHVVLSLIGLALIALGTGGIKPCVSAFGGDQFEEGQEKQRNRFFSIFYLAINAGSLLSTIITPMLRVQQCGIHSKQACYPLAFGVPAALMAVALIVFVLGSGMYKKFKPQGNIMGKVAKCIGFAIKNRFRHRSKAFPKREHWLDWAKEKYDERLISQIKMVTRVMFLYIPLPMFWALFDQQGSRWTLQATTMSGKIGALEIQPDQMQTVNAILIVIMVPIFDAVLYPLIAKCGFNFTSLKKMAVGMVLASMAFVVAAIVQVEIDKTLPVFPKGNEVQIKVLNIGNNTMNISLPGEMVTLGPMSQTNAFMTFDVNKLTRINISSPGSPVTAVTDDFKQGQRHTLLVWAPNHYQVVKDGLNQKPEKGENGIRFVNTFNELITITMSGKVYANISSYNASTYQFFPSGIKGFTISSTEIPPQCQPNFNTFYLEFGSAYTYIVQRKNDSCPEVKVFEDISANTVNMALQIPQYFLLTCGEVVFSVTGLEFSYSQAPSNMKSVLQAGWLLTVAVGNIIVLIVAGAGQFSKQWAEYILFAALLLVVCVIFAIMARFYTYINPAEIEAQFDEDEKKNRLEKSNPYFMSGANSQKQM
The experiment in a line: Competitive binding (3H Gly-Sar uptake inhibition) in hPepT1 over-expressing DC5 cells. Format: cell-based. Particulars: for affinity for PepT1: DC5 cells over-expressing hPepT1. How it is done: Ki values for the cidofovir compounds were determined in the hPepT1 over-expressing cell line (DC5) using ^3H glycine-sarcosine (Gly-Sar). DC5 cells were plated (12,000 cells/well) in 96-well tissue culture plates (Falcon) and allowed to grow for 4 days. The cells were washed once with 200 μl of uptake buffer and aspirated. The plates were cooled to 4° C. and 25 μl of uptake buffer containing 50 μM Gly-Sar (0.5 μCi/ml) was added. The uptake buffer also contained the test cidofovir-based compounds over a range of concentrations. Uptake was initiated by placing the plate in a shaker water bath (37° C.) and terminated at 10 min by rapid washing with multiple changes of 4° C. PBS (Sigma). The radioactive peptide was extracted from the cell layer with 200 μl of methanol:water (1:1) and counted in 4 ml of CytoScint ESTM scintillation cocktail (ICN). Non-linear regression analysis of the data was used to determine the IC50 using the solver function in Microsoft Excel.

The nature of data set [2]: Single pass intestinal perfusion with portal vein blood collection. Format: in vivo, rat. Particulars: for Pe-mes (mesenteric permeability): rat in situ single pass intestinal perfusion, portal vein plasma, pH 7.5 buffer. How it is done: Male albino Sprague-Dawley rats, 9-10 weeks old and weighing 250-400 g were used in the study. Prior to each experiment, the rats were fasted for 18 h with free access to water. The rats were anesthetized with an i.m. injection of ketamine/xylazinelbutorphanol (87, 6, and 0.2 mg/kg body weight, respectively). The abdomen was opened by a midline incision of 4-5 cm. A suitable intestinal segment of approximately 10-20 cm was cannulated on two ends and connected to a syringe pump that guided the solution through a water bath of 37° C. This isolated segment was then rinsed with buffer at the respective pH at a flow-rate of 0.5 ml/min in order to clean out any residual debris. A 10 mM HEPES (pH 7.5) buffer containing 135 mM NaCl, 5 mM KCl and 0.01% PEG 4000 was used for the perfusion buffer. The intestinal segments were perfused at a flow rate of approximately […] with these buffers containing test drug and ^14C-PEG 4000 as a non-absorbable marker for measuring water flux. […] Sample analysis for ^14C (PEG-4000) was performed by scintillation counting. For these studies, we also took blood from the portal vein (prehepatic) as described below. After a segment of intestine was cannulated, the portal vein was then immediately cannulated using a 24-gauge Angeocath catheter (Becton Dickinson, Sandy, Utah). The cannula was secured in place using cyanoacrylate glue or surgical tape and connected to an approximately 35 cm long Silastic tubing, which allowed blood to flow into vials placed about 25 cm below the mesenteric vein. The single-pass intestinal perfusion was initiated at this time. Blood flowing out of the mesenteric vein from the isolated intestinal segment was collected directly into vials, centrifuged immediately and plasma was separated and stored at −80° C.
Rat plasma samples were acidified and processed with solid phase extraction. Briefly, a cation exchange solid-phase cartridge (MCX, 30 mg/i. cc, Waters) was activated with 1.0 ml of methanol and equilibrated with 1.0 ml of water. A 500 μl aliquot of rat plasma was acidified and loaded onto the cartridge. After washing with 1.0 ml of 0.1 N HCl and 1.0 ml methanol, the compounds were eluted with 1 ml of 5% NH4OH in methanol. The solvent was evaporated under vacuum and the residue was reconstituted in 200 μl of water. Samples were analyzed using a LC-MS/MS system (Micromass Quattro II, HP 1100). Ten μl of sample was separated with a Cs column (2.1×150 mm) using a mobile phase of 5-10% acetonitrile:water containing 0.5% formic acid.
From the plasma concentration of compound, the mesenteric permeability was determined by substitution into Eq. (1), Flux=(A)(Pe-mes)(Ci) Eq. (1) where Flux is equal to the portal blood flow (estimated at 1 ml/min in the rat) X the steady state mesenteric blood concentration of cidofovir-based compound, A is the absorptive area of the intestine (estimated at 12.56 cm^2 in the rat intestine), Pe-mes is the mesenteric permeability (cm/s), and Ci is the starting concentration of the drug in the perfusate ([…]).

For data set [3] the following is noted: cell and tissue homogenates.
The conditions of data set [4]: pH 3-5.
For data set [5] the following is noted: in vivo; cited from earlier work.
Setting [6] is: DC5 cells, 50 μM 3H Gly-Sar, 10 min, 37° C., read-out: Gly-Sar inhibition, Ki.

Like-named read-outs stand apart in the source and are kept apart here.

In the case of `COC(=O)C(COP1(=O)COC(Cn2ccc(N)nc2=O)CO1)NC(=O)C(C)N` (stereo not shown) [Compound 6, cHPMPC-Ala-Ser(OMe)], in data set [1], the Ki is 3.4 ± 0.2 mM and the “affinity for PepT1” value is “significant affinity”. Further, in data set [2], the “Pe-mes (mesenteric permeability)” value was determined as 0.98 cm/s × 10^5.

In the case of `COC(=O)[C@H](COP1(=O)CO[C@@H](Cn2ccc(N)nc2=O)CO1)NC(=O)[C@@H](N)CC(C)C` (mixture of isomers) [Compound 7, cHPMPC-Leu-Ser(OMe)], the “affinity for PepT1” value in data set [1] is given as “significant affinity”. In data set [1] (setting [6]), the Ki was determined as 5.4 ± 0.2 mM. In data set [2], the “Pe-mes (mesenteric permeability)” value came out at 0.48 cm/s × 10^5.

As for `COC(=O)[C@H](COP1(=O)CO[C@@H](Cn2ccc(N)nc2=O)CO1)NC(=O)[C@@H](N)C(C)C` (mixture of isomers) [Compound 4, cHPMPC-Val-Ser(OMe)], the “release of active drug” value in data set [3] is on record as “rapidly released the active drug”. The stability in buffer result in data set [4] is on record as “stable”. Also, in data set [1], the affinity, expressed as Ki, was 2.7 ± 0.1 mM and the “affinity for PepT1” value is given as “significant affinity”. In addition, the “transport on co-dosing with bestatin” value in data set [2] (co-dosing with the aminopeptidase inhibitor bestatin) is “enhanced transport”. In addition, in data set [2] (in situ perfusion model, co-perfusion with Gly-Sar), the “transport on co-perfusion with Gly-Sar” value is recorded as “almost completely suppressed”. The “Pe-mes (mesenteric permeability)” value in data set [2] was 1.18 cm/s × 10^5. In addition, the “transport vs. the parent drug” value in data set [2] (rat model) is on record as “enhanced transport”.

In the case of `CC(C)[C@H](N)C(=O)OCCOCn1cnc2c(=O)[nH]c(N)nc21` [Valacyclovir], the “bioavailability enhancement compared to parent drug acyclovir” value in data set [5] is 3- to 5 fold.

`Nc1ccn(C[C@H]2COP(=O)(O)CO2)c(=O)n1` [Cyclic cidofovir, reference compound]: in data set [1] (setting [6]), the Ki worked out at 10.7 ± 0.2 mM. Moreover, the “Pe-mes (mesenteric permeability)” value in data set [2] was found to be 0.003 cm/s × 10^5.

Turning to `Nc1ccn(C[C@@H](CO)OCP(=O)(O)O)c(=O)n1` [Cidofovir, (S)-1-(3-hydroxy-2-phosphonylmethoxypropyl)cytosine, reference compound], the Ki in data set [1] (setting [6]) amounted to 10.8 ± 0.3 mM. Further, in data set [2], the “Pe-mes (mesenteric permeability)” value came out at 0.052 cm/s × 10^5.
